# Data published in patent publication US20150231109A1, “COMBINATIONS (CATECHINS AND METHOTREXATE) FOR USE IN THE TREATMENT OF MELANOMAS” (UNIVERSIDAD DE MURCIA, priority 2012, published 2015).
# Assays:
# [1] = test system: SK-MEL-28 cells; test: Apoptosis assay (cytoplasmic histone-associated DNA fragmentation ELISA), SK-MEL-28; format: cell-based, human; details: SK-MEL-28, MTX alone
# Experimental: FIGS. 2A-N. MTX and TMECG combination therapy induces apoptosis via dTTP depletion and DNA-damage. A, Intracellular accumulation of TMECG-QM in SK-MEL-28 treated with TMECG or MTX/TMECG for 24 h. B, Proliferation assays performed of control or MTX/TMECG-treated (10 μM/1 μM) SK-MEL-28 cells. C, Quantification of effects of MTX/TMECG treatment on SK-MEL-28 cells (*P<0.05 with respect to TMECG-treated cells). For time course assay MTX (1 μM) and TMECG (10 μM) were used. D, dNTP quantification in melanoma cells subjected to indicated treatments (*P<0.05). […] K, quantification of γH2AX foci in SK-MEL-28 cells treated with MTX (1 μM) and/or TMECG (10 μM), or X-rays. […] N, Cell cycle profile determined by flow cytometry of SK-MEL-28 cells treated with a sublethal dose of MTX/TMECG. […]
# (§1) The induction of apoptosis was assessed by performing cytoplasmic histone-associated DNA fragmentation using a kit from Roche Diagnostics (Barcelona, Spain). […] The amount of nucleosomes is photometrically quantified at 405 nm by the peroxidase activity retained in the immunocomplexes. Apoptosis was defined as the specific enrichment of mono- and oligonucleosomes in the cytoplasm and was calculated by dividing the absorbance of treated samples by the absorbance of untreated samples after correcting for the number of cells. […]
# [2] = test system: melanoma (SK-MEL-28, G361) cell lines; test: MTX/TMECG synergy titration (apoptosis), melanoma cell lines; format: cell-based, human; details: apoptosis after 4 days
# Experimental: FIGS. 5A-D. The effects of MTX and/or TMECG on the growth of melanoma cell lines. A, Viability was determined by the MTT assay. Cells were treated with vehicle only (•), 10 μM TMECG ( ), 1 μM MTX (▴) or with a combination of 1 μM MTX+10 μM TMECG (▾). Table outlines p53, BRAF, NRAS, and PTEN status with specific amino acid substitutions. […] B, MTX/TMECG synergy test for melanoma and non-melanoma cancer cells in which drugs were combined in 6×6 matrices where the concentration of one drug was increased along each axis. The lowest concentration was 0 and the highest concentration was chosen close to the IC50 for each drug in each assayed cell line. Apoptosis was determined after 4 days of treatment. Data were obtained in triplicate in two independent experiments. […]
# as §1
smiles,measurement,setting,value
"CN(Cc1cnc2nc(N)nc(N)c2n1)c1ccc(C(=O)N[C@@H](CCC(=O)O)C(=O)O)cc1 [MTX, methotrexate]",induction of apoptosis,[1],did not induce apoptosis
same,"sensitivity to MTX alone, melanoma versus non-melanoma lines",[2],substantially less sensitive
